{
  "source": "paper PMC10224356",
  "about": "“Trisubstituted 1,3,5-Triazines as Histamine H4 Receptor Antagonists with Promising Activity In Vivo” (Molecules, 2023)",
  "key": {"rats": {"test_system": "rats", "experiment": "Carrageenan-induced inflammatory pain and oedema", "format": "in vivo", "description": "We wanted to confirm the activity in an additional model of inflammation in another species. To evaluate the influence of compound 6 on acute inflammation, such as oedema and hyperalgesia, we tested it in the carrageenan-induced inflammation model in rats. […] As oedema is one of the most significant symptoms of inflammation resulting from the release of inflammatory mediators, we may conclude that compound 6 has some anti-inflammatory activity. […] The response to mechanical stimuli was observed as the pain withdrawal threshold (Figure 8B) decreased from the value of 138.33 ± 1.05 g (baseline) before carrageenan injection to the value of 120.83 ± 2.0 g (87.3% of the baseline) 3 h after injection, 125.83 ± 2.51 (90.9% of the baseline) 6 h after injection, and 124.17 ± 2.0 (89.7% of the baseline). […] The results obtained confirmed its analgesic activity in mechanical inflammatory hyperalgesia. […] We claim that the effect may result from the inhibition of the release of inflammatory mediators and subsequent inhibition of peripheral and central sensitization. […] The effect was not as persistent as in the mechanical hyperalgesia and was observed only 1, 2 and 3 h after induction of inflammation.\nThe procedure used was described previously. Briefly, the inflammation and paw oedema was induced by subplantar injection of 0.1 mL of 1% carrageenan (made in PBS) into the right hind paw of the rat. The paw volume was measured by the dislocation of the water column of the plethysmometer (Plethysmometer 7140, Ugo Basile). The hyperalgesic response to mechanical stimuli was measured using Analgesy Meter 37215, Ugo Basile. The intensity of the applied force, in grams, was recorded when the paw was withdrawn (withdrawal threshold). Moreover, the hyperalgesic response to thermal stimuli was determined by using a plantar test apparatus (Commat Ltd., Ankara, Turkey). The latency to the heat stimulus was automatically recorded. Three subsequent applications of the heating stimulus were done, separated by 1- to 2-min intervals, and the mean of these measures was taken.\nFigure 8 Effect of compound 6 on carrageenan-induced oedema (A), mechanical hyperalgesia (B) and thermal hyperalgesia (C) developed after subplantar injection of 1% carrageenan in rats. Data are expressed as means ± SEM for 5–6 animals. Time 0—the initial reaction considered as the nociceptive reaction before carrageenan administration. Statistical significance compared to vehicle-treated animals: * p < 0.05, ** p < 0.01, *** p < 0.001, **** p < 0.0001. Statistical analysis: two-way ANOVA post hoc Bonferroni test. Statistical significance compared to initial value (0 time point) in the vehicle-treated group: # p < 0.05, ## p < 0.01, ### p < 0.0001. Statistical analysis: one-way ANOVA followed by Dunnett’s post hoc test."}, "[1]": {"molecular_target": "T1, human histamine H4 receptor (Homo sapiens, UniProt Q9H3N8)", "T1 construct": "made in house; host or cells: Sf9 cells (membrane preparations)", "T1 sequence (Q9H3N8 whole entry)": "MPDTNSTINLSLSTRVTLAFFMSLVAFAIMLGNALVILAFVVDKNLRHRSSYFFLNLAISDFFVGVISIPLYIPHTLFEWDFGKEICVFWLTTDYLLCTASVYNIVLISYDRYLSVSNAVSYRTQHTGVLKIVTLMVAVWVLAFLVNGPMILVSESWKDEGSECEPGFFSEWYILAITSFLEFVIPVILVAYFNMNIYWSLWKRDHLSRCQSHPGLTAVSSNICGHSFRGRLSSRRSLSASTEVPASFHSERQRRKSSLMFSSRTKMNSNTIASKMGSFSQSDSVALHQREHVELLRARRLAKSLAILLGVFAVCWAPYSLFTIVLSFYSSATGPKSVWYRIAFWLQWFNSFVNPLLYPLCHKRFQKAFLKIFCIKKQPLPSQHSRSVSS", "experiment": "[3H]histamine displacement assay, membranes of Sf9 cells expressing hH4R with Gαi2 and Gβ1γ2", "format": "binding", "details": "Sf9 membranes, mean within 95% CI", "procedure": "The affinity of compounds 2–20 for hH4R was evaluated in a binding assay as previously described. [^3H]Histamine was used as a radioligand and hH4R was expressed in Sf9 cells with G protein Gαi2 and Gβ1γ2 subunits. The pharmacological results represented as Ki values are listed in Table 1 (for alicyclic derivatives) and Table 2 (for aliphatic derivatives). […] Results depended on the substituent in the four positions of a triazine (a main structure).\nAffinities of all triazine derivatives were determined in a [^3H] histamine (f.c. 10 nM) displacement assay using membrane preparations from Sf9 cells expressing human H4R and co-expressed with Gαi2 and Gβ1γ2 subunits as described previously. Nonspecific binding was determined in the presence of unlabelled JNJ7777120 ([…])."}, "mice [2]": {"test_system": "mice", "experiment": "Histamine-induced pruritus", "format": "in vivo", "details": "25 mg/kg i.p.", "procedure": "Intradermal injection of histamine induced scratching bouts in the amount of 62.11 ± 9.4. […].\n(§1) The surface (around 2 cm^2) of the mice’s nape was shaved at least 2 days prior to experiments. On the day of the experiment, mice were individually placed in plastic chambers (15 × 15 × 30 cm) and after the 30 min habituation period, they were given an intradermal (i.d.) injection of histamine dihydrochloride (10 µmol/site) or chloroquine (CQ, 200 µg/site), which were dissolved in physiological saline and administrated in the constant volume of 20 μL. Immediately after the injection, scratching (series of movements considered as a single scratching bout) of the injected site by the hind paw was counted for 60 min or 30 min after histamine and CQ administration, respectively. Before pruritogens injection different groups of mice were treated i.p. with vehicle (10 mL/kg, negative control) or the dose–response of investigated compound.\n(§2) Figure 9 The effect of compound 6 and reference compound pyrilamine (Pyr) on the number of scratching bouts during 60 min-long observation in histamine-induced pruritus (A) and 30 min-long observation in chloroquine-induced pruritus (B). The tested compound or vehicle (1% solution of Tween 80) was administered intraperitoneally (i.p.) 30 min before the intradermal (i.d.) injection of histamine or chloroquine. The results are presented as bar plots showing the mean ± SEM. Statistical analysis: one-way ANOVA followed by Dunnett’s post hoc test, * p < 0.05, ** p < 0.01, *** p < 0.001, n = 8–10 mice per group."}, "mice [3]": {"test_system": "mice", "experiment": "Chloroquine-induced pruritus", "format": "in vivo", "description": "When comparing the activity of the tested in both used models, it should be noted that the efficacy (higher maximal effect) and potency (lower doses needed to obtain the same result) of the compound were better in histamine-induced pruritus. Nevertheless, compound 6 was also active in histamine-independent itch, which contrasts with the activity of pyrilamine representing a commonly used drug in the treatment of pruritus. […] The wide spectrum of antipruritic activity of compound 6 is very promising, considering that histamine-independent itch is still a crucial clinical problem in pruritus treatment.\nas §1, §2"}},
  "data": [
    {"smiles": "CN1CCN(c2nc(N)nc(CC3CCCC3)n2)CC1", "note": "[Compound 6, 4-(Cyclopentylmethyl)-6-(4-methylpiperazin-1-yl)-1,3,5-triazin-2-amine]", "values": [
      {"measurement": "Pain withdrawal threshold (mechanical hyperalgesia)", "setting": "rats; 50 mg/kg, 3 h after carrageenan (vehicle 87.3%)", "value": "122.1 % of the baseline"},
      {"measurement": "Pain withdrawal threshold (mechanical hyperalgesia)", "setting": "rats; 50 mg/kg, 6 h after carrageenan (vehicle 90.9%)", "value": "119.5 % of the baseline"},
      {"measurement": "Pain withdrawal threshold (mechanical hyperalgesia)", "setting": "rats; 50 mg/kg, third time point (time not given, presumably 24 h; vehicle 89.7%)", "value": "111.7 % of the baseline"},
      {"measurement": "Paw volume increase (carrageenan oedema)", "setting": "rats; 75 mg/kg, 1 h after carrageenan (vehicle 48.9%)", "value": 22.1, "unit": "%"},
      {"measurement": "Paw withdrawal latency (thermal hyperalgesia)", "setting": "rats; 75 mg/kg, 1 h after inflammation induction (vehicle 62.44%)", "value": "129.5 % of baseline"},
      {"measurement": "Paw volume increase (carrageenan oedema)", "setting": "rats; 75 mg/kg, 2 h after carrageenan (vehicle 79.3%)", "value": 46.3, "unit": "%"},
      {"measurement": "Paw withdrawal latency (thermal hyperalgesia)", "setting": "rats; 75 mg/kg, 2 h after inflammation induction (vehicle 65.13%)", "value": "103.6 % of baseline"},
      {"measurement": "Pain withdrawal threshold (mechanical hyperalgesia)", "setting": "rats; 75 mg/kg, 3 h after carrageenan", "value": "107.5 % of the baseline"},
      {"measurement": "Paw volume increase (carrageenan oedema)", "setting": "rats; 75 mg/kg, 3 h after carrageenan (vehicle 113.0%)", "value": 72.6, "unit": "%"},
      {"measurement": "Paw withdrawal latency (thermal hyperalgesia)", "setting": "rats; 75 mg/kg, 3 h after inflammation induction (vehicle 45.63%)", "value": "86.3 % of baseline"},
      {"measurement": "Pain withdrawal threshold (mechanical hyperalgesia)", "setting": "rats; 75 mg/kg, 6 h after carrageenan", "value": "113.2 % of the baseline"},
      {"measurement": "Paw volume increase (carrageenan oedema)", "setting": "rats; 75 mg/kg, 6 h after carrageenan (vehicle 115.2%)", "value": 76.8, "unit": "%"},
      {"measurement": "Paw volume increase (carrageenan oedema)", "setting": "rats; 75 mg/kg, 24 h after carrageenan (vehicle 114.1%)", "value": 55.8, "unit": "%"},
      {"measurement": "Pain withdrawal threshold (mechanical hyperalgesia)", "setting": "rats; 75 mg/kg, third time point (time not given, presumably 24 h)", "value": "113.8 % of the baseline"},
      {"measurement": "Ki", "setting": "[1]", "value": 63, "unit": "nM"},
      {"measurement": "melting point", "value": "165 to 168", "unit": "°C"},
      {"measurement": "Scratch bouts, histamine-induced pruritus, % of the control value", "setting": "mice [2]; 60 min observation", "value": "13.47 % of the control value"},
      {"measurement": "Number of scratch bouts, histamine-induced pruritus", "setting": "mice [2]; 60 min observation (control 62.11 ± 9.4)", "value": "8.37 ± 1.96", "unit": "scratch bouts"},
      {"measurement": "Scratch bouts, chloroquine-induced pruritus, % of the control value", "setting": "mice [3]; 50 mg/kg i.p., 30 min observation", "value": "25.12 % of the control value"},
      {"measurement": "Number of scratch bouts, chloroquine-induced pruritus", "setting": "mice [3]; 50 mg/kg i.p., 30 min observation (control 72.20 ± 11.59)", "value": "18.14 ± 3.48", "unit": "scratch bouts"},
      {"measurement": "Effect on number of scratch bouts, chloroquine-induced pruritus", "setting": "mice [3]; doses 25 mg/kg and 50 mg/kg i.p.", "value": "significantly decreased the number of scratch bouts"},
      {"measurement": "Effect on number of scratch bouts, chloroquine-induced pruritus", "setting": "mice [3]; doses of 6.25 mg/kg and 12.5 mg/kg i.p.", "value": "not statistically significant"}
    ]}
  ]
}
